Test results as given in patent US11174223B2, “Compositions, methods, and systems for the synthesis and use of imaging agents” (Lantheus Medical Imaging, Inc., priority 2010, dated 2021).
Counter-ions that a name gives are not always drawn.

What was measured:
[1] = system: norepinephrine transporter (NET), uptake 1; experiment: Heart uptake in rats after uptake 1 blockade (desipramine) or 6-hydroxydopamine sympathetic denervation; format: in vivo; conditions: sympathetic denervated rats
Procedure: (§1) Desipramine, a selective uptake 1 inhibitor, was used to block cardiac uptake 1 in rats (10 mg/kg, ip), rabbits (1 mg/kg iv), and NHPs (0.5 mg/kg, iv). 6-hydroxydopamine, a neurotoxin, was injected to induce sympathetic denervation in rats (100 mg/kg ip for 7 days) and rabbits (25 mg/kg iv on day 1, 2, 7, and 8). Imaging agent-1 heart uptake in comparison with MIBG was assessed by tissue sampling at 60 minutes post imaging agent injection. Imaging was also performed with (2-tert-butyl-4-chloro-5-[4-(2-[^18F]fluoroethoxymethyl)-benzyloxy]-2H-pyridazin-3-1.

[2] = system: norepinephrine transporter (NET), uptake 1; experiment: Heart uptake in rabbits after uptake 1 blockade (desipramine) or 6-hydroxydopamine sympathetic denervation; format: in vivo; conditions: denervated rabbits and uptake 1 blocked rabbits and NHPs
Procedure: (§2) Imaging agent-1 was designed as a substrate for the norepinephrine transporter (NET) to image the cardiac sympathetic nervous system. […] These values were similar to that of MIBG (2.12±0.26 μM and 4.76±0.78 pmol/min/million cells). In animals, tissue biodistribution of imaging agent-1 was assessed by tissue sampling at 15- and 60-minute following administration. Heart uptake was 2.36±0.16 and 2.17±0.12% injected dose per g tissue (% ID/g) in rats and 0.25±0.03 and 0.28±0.03% ID/g in rabbits. In rabbits, desipramine (1 mg/kg) inhibited heart uptake of imaging agent-1 by 68% and ^123I-MIBG uptake by 55% at 1 hour post dose.
as §1

[3] = Cardiac PET imaging in rabbit models of regional and systemic cardiac sympathetic denervation (CSD); format: in vivo, rabbits; conditions: rabbits
Procedure: Rabbit models of regional and systemic CSD were used. To develop regional CSD, a median sternotomy was performed and phenol (89% in liquid) was pained on the anterior and posterior walls of the left ventricle. To develop systemic denervation the neurotoxin, 6-hydroxydopamine (25 mg/kg on day 1, 2, 7 and 8), was administered intravenously. Two weeks following these procedures, rabbits were imaged with imaging agent-1 (˜1.5 mCi, i.v.) using a microPET camera for 30 minutes.

[4] = Cardiac PET imaging in rabbit model of regional cardiac sympathetic denervation (RCSD) and re-innervation; format: in vivo, rabbits; conditions: all rabbits including those with RCSD regions
Procedure: (§3) Rabbit models of RCSD were developed by applying phenol directly on the surface of the left ventricular wall during a sternotomy. Two and twelve weeks following the procedure, imaging agent-1 cardiac PET imaging (˜1.5 mCi, iv) were performed in these rabbits. The myocardial area with radioactivity ≥50% maximum was quantified as innervated region for comparison. To evaluate susceptibility of arrhythmia in rabbits, dofetilide (10 and 40 μg/kg iv, a delayed IKr inhibitor) induced changes were assessed by measuring ECG including heart rate (HR), QTc interval (corrected by Fridericia method), and frequency of arrhythmia.

[5] = Solubility of salt forms in acetonitrile; format: physicochemical; conditions: organic solvent or mixture, read-out: Solubility (Acetonitrile; mg/mL)
Description: (§4) Selected physical properties of the salts of Examples 5-6 and 8-12, determined using established characterization methods, are tabulated below (Table 1).

[6] = Dofetilide induced ECG changes (arrhythmia susceptibility) in RCSD rabbits; format: in vivo; conditions: RCSD versus control
Procedure: as §3

[7] = Thermal stability of salt forms; format: physicochemical; conditions: salt form of imaging agent precursor-1
Description: as §4

[8] = Stability of salt forms to GVS and 40° C./75% RH; format: physicochemical; conditions: salt form of imaging agent precursor-1
Description: as §4

[9] = Hygroscopicity of salt forms of imaging agent precursor-1; format: physicochemical; conditions: salt form of imaging agent precursor-1
Description: as §4

NET [10] = target: T1, NET (Homo sapiens, UniProt P23975); experiment: Effect of heart failure medications on NET mediated imaging agent-1 uptake in SK-N-SH cells; format: cell-based; set-up: endogenous in cells; host or cells: SK-N-SH; conditions: even at the highest concentrations tested (1000 μM)
T1 sequence (P23975 whole entry): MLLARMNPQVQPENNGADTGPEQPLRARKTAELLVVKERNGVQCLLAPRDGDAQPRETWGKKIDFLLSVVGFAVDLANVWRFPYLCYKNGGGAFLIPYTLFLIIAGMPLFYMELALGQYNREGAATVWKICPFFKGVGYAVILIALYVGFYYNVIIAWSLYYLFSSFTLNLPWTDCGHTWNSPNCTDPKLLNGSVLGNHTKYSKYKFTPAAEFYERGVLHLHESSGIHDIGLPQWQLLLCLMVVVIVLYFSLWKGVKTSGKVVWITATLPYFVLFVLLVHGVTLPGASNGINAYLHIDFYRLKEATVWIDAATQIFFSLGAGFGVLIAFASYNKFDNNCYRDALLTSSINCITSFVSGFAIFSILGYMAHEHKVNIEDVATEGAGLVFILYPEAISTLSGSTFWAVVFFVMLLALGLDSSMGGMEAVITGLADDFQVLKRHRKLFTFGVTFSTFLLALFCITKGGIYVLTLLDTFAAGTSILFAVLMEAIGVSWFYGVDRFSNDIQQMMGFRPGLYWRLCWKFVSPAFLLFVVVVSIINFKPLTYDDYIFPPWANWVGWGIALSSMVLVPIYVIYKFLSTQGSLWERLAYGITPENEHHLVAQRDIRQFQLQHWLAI

[11] = target: T2, norepinephrine transporter (NET) (Homo sapiens, UniProt P23975); experiment: Uptake and uptake kinetics in SH-SY5Y human neuroblastoma cells; format: cell-based; conditions: SH-SY5Y cells
T2 construct: endogenous in cells; host or cells: SH-SY5Y
T2 sequence (P23975 whole entry): as above
Procedure: as §2

[12] = target: T3, norepinephrine transporter (NET), uptake 1 (Oryctolagus cuniculus, UniProt G1TDF9); experiment: Heart uptake in rabbits after uptake 1 blockade (desipramine) or 6-hydroxydopamine sympathetic denervation; format: in vivo; conditions: rabbits, desipramine 1 mg/kg, 1 hour post dose
T3 construct: from tissue; host or cells: rabbit heart, in vivo
T3 sequence (G1TDF9 1-617): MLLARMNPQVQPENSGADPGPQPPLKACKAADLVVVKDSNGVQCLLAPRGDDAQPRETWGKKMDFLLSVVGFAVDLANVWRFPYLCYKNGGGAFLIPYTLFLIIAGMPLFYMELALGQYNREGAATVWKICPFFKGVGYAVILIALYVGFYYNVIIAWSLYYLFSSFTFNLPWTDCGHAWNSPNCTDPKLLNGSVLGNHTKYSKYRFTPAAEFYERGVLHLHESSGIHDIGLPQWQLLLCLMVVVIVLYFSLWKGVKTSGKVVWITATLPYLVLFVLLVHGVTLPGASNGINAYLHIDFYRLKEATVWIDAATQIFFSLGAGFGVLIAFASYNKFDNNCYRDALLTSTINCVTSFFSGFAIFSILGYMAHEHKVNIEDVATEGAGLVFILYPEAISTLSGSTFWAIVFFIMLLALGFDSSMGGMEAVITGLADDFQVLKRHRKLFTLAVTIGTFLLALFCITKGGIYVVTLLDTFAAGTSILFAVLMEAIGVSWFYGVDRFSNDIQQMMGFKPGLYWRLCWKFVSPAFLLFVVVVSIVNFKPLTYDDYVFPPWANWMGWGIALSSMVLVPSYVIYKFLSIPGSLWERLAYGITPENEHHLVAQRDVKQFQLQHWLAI
Procedure: as §2, §1

[13] = Heart uptake by tissue sampling in Dahl Salt Sensitive (DSS) rats, a model of heart failure; format: in vivo
Procedure: The prognostic value of imaging agent-1 was evaluated in Dahl Salt Sensitive (DSS) rats, a rat model of heart failure (HF), and compared with ^123I-meta-iodobenzylguanidine (^123I-MIBG). DSS rats were fed either a low salt (0.1% as control) or high salt diet (8%) for 5 or 9 weeks. To determine the progression of HF in these rats, plasma norepinephrine levels, and heart and lung weights were measured. Compared to low salt diet groups, DSS rats fed a high salt diet for 5 weeks had marked increases in norepinephrine levels (258±28 vs. 1242±184 pg/mL) and heart to body weight ratio (3.3±0.1 vs. 4.5±0.3 mg/g). By 9 weeks, the norepinephrine levels (656±219 vs. 1508±165 pg/mL) and heart to body weight ratio (3.2±0.1 vs. 6.1±0.3 mg/g) had increased further and the lung to body weight ratio had become elevated (3.9±0.1 vs. 14.0±1.4 mg/g). […] Imaging agent-1 and MIBG heart uptake was examined in early and late stage HF rats by tissue sampling after intravenous administration. The uptake was measured using a gamma counter and expressed as differential absorption ratio (DAR). The imaging agent-1 heart uptake decreased following progression of HF from early to late stage HF (low salt group vs. high salt group: 6.9±0.6 vs. 5.1±0.6 and 8.1±0.2 vs. 3.1±0.2 DAR at 5 and 9 weeks respectively).

NET [14] = target: T1, NET; experiment: Cell uptake selectivity with and without desipramine in SK-N-SH cells; format: cell-based; set-up: endogenous in cells; host or cells: SK-N-SH
Procedure: (§5) The affinity (Ki) was determined in a competition binding assay by incubating ^19F-imaging agent-1, a cold analog of imaging agent-1, or NE with ^3H-desmethylimipramine in cell membrane overexpressing human NET. The uptake selectivity was assessed by measuring imaging agent-1 or ^3H-NE cell uptake with and without pretreatment of desipramine, a selective NET inhibitor, in SK—N—SH (human neuroblastoma) and PC-12 (rat pheochromocytoma) cells. In SK—NSH cells, the uptake kinetics (Km and Vmax) were evaluated by measuring NET mediated uptake of imaging agent-1 or NE at various concentrations. Imaging agent-1 cardiac image quality was evaluated by PET imaging (˜1.5 mCi, i.v.) in rabbits in the presence and absence of desipramine (1 mg/kg).

NET [15] = target: T4, NET (Rattus norvegicus, UniProt Q63380); experiment: Cell uptake selectivity with and without desipramine in PC-12 cells; format: cell-based
T4 construct: endogenous in cells; host or cells: PC-12
T4 sequence (Q63380 1-617): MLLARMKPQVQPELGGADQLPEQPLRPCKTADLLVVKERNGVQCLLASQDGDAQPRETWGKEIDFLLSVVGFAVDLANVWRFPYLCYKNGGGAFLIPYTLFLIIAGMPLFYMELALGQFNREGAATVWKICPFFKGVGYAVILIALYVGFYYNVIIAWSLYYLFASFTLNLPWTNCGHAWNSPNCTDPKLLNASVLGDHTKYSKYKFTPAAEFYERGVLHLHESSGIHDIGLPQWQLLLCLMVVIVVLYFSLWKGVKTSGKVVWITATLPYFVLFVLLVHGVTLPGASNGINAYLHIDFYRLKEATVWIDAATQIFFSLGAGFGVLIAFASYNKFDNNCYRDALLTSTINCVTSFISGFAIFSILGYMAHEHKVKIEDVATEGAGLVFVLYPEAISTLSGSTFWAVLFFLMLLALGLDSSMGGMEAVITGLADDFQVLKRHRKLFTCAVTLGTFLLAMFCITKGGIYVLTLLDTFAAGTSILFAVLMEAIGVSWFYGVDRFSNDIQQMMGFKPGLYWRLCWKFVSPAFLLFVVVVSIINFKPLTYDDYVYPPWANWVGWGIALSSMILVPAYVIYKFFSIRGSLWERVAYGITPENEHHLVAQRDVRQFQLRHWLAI
Procedure: as §5

NET [16] = target: T1, NET; experiment: NET mediated uptake kinetics in SK-N-SH cells; format: cell-based; set-up: endogenous in cells; host or cells: SK-N-SH
Procedure: as §5

CC(C)(C)n1ncc(OCc2ccc(COCC[18F])cc2)c(Cl)c1=O [(2-tert-butyl-4-chloro-5-[4-(2-[^18F]fluoroethoxymethyl)-benzyloxy]-2H-pyridazin-3-1, reference compound]
Cardiac imaging, myocardial activity versus control [1]: comparable myocardial activity
Cardiac imaging, myocardial activity [2]: marked activity reduction
Cardiac perfusion imaging, control versus denervated rabbits [3]: no differences were observed
Perfusion imaging, myocardial distribution [4]: homogeneous myocardial distribution

CC(=O)O.N=C(N)NCc1ccc(OCCCOS(=O)(=O)c2ccc(Br)cc2)c(Br)c1 [Acetate, 3-(2-Bromo-4-(guanidinomethyl)phenoxy)propyl 4-bromobenzenesulfonate, acetic acid salt]
solubility [5]: 0.4 mg/mL

N=C(N)NCc1ccc(OCCCOS(=O)(=O)c2ccc(Br)cc2)c(Br)c1.O=C(O)c1ccccc1 [Benzoate, 3-(2-Bromo-4-(guanidinomethyl)phenoxy)propyl 4-bromobenzenesulfonate, benzoic acid salt]
solubility [5]: 1.5 mg/mL

CN(CCOc1ccc(NS(C)(=O)=O)cc1)CCc1ccc(NS(C)(=O)=O)cc1 [Dofetilide, dofetilide]
Induced QTc prolongation, frequency of premature ventricular contraction, and torsades de pointes ([6]; 10 and 40 μg/kg iv): more prominent in the RCSD group than in control
Induced changes in HR [6]: comparable in the two groups

Cl.N=C(N)NCc1ccc(OCCCOS(=O)(=O)c2ccc(Br)cc2)c(Br)c1 [Hydrochloride, 3-(2-Bromo-4-(guanidinomethyl)phenoxy)propyl 4-bromobenzenesulfonate, hydrochloric acid salt]
Thermal stability, First event at [7]: 117 °C
Stability to GVS and 40° C./75% RH [8]: Stable
Hygroscopicity [9]: Indicates hydrate

CCCCc1nc(Cl)c(CO)n1Cc1ccc(-c2ccccc2-c2nn[nH]n2)cc1 [Losartan, losartan]
Effect on imaging agent-1 uptake (NET [10]): no effect

N=C(N)NCc1cccc(I)c1 [MIBG, ^123I-meta-iodobenzylguanidine]
Km [11]: 2.12 ± 0.26 µM

N=C(N)NCc1cccc([123I])c1 [MIBG, ^123I-meta-iodobenzylguanidine]
Inhibition of heart uptake by desipramine (uptake 1 blockade) [12]: 55%
Vmax (uptake kinetics) [11]: 4.76±0.78 pmol/min/million cells
Heart uptake, differential absorption ratio (DAR) ([13]; high salt group, 5 weeks (early stage HF)): 3.8±0.5 DAR
Heart uptake, differential absorption ratio (DAR) ([13]; high salt group, 9 weeks (late stage HF)): 2.3±0.3 DAR
Heart uptake, differential absorption ratio (DAR) ([13]; low salt group, 5 weeks): 7.3±0.1 DAR
Heart uptake, differential absorption ratio (DAR) ([13]; low salt group, 9 weeks): 7.9±0.5 DAR

CS(=O)(=O)O.N=C(N)NCc1ccc(OCCCOS(=O)(=O)c2ccc(Br)cc2)c(Br)c1 [Mesylate, 3-(2-Bromo-4-(guanidinomethyl)phenoxy)propyl 4-bromobenzenesulfonate, methanesulfonic acid salt]
solubility [5]: 1.28 mg/mL
Thermal stability, First event at [7]: 152 °C
Stability to GVS and 40° C./75% RH [8]: Stable
Hygroscopicity [9]: Slight

NC[C@H](O)c1ccc(O)c(O)c1 [NE, norepinephrine, reference compound]
Inhibition of cell uptake by blockade of NET (desipramine) (NET [14]): 97±1%
Inhibition of cell uptake by blockade of NET (desipramine) (NET [15]): 93±1%
Vmax (NET mediated uptake) (NET [16]): 6.2±0.7 pMol/million cells/min

N=C(N)NCc1ccc(OCCCOS(=O)(=O)c2ccc(Br)cc2)c(Br)c1 [Phosphate, 3-(2-Bromo-4-(guanidinomethyl)phenoxy)propyl 4-bromobenzenesulfonate, phosphoric acid salt]
solubility [5]: 0.3 mg/mL
Thermal stability, First event at [7]: 155 °C
Stability to GVS and 40° C./75% RH [8]: Stable
Hygroscopicity [9]: Slight

N=C(N)NCc1ccc(OCCCOS(=O)(=O)c2ccc(Br)cc2)c(Br)c1 [Sulfate, 3-(2-Bromo-4-(guanidinomethyl)phenoxy)propyl 4-bromobenzenesulfonate, sulfuric acid salt]
Thermal stability, First event at [7]: 103 °C
Hygroscopicity [9]: Hygroscopic

N=C(N)NCc1ccc(OCCCOS(=O)(=O)c2ccc(Br)cc2)c(Br)c1.O=C(O)C(F)(F)F [Trifluoroacetate, 3-(2-Bromo-4-(guanidinomethyl)phenoxy)propyl 4-bromobenzenesulfonate, trifluoroacetate salt]
solubility [5]: 4.68 mg/mL
Thermal stability, First event at [7]: 142 °C
Stability to GVS and 40° C./75% RH [8]: Stable
Hygroscopicity [9]: Slight

C[C@H](CS)C(=O)N1CCC[C@H]1C(=O)O [captopril]
Effect on imaging agent-1 uptake (NET [10]): no effect
